Key:
scrambled siRNA [1] = test: SYBR green dye exclusion assay, binding of peptides to siRNA; settings: scrambled siRNA in normal saline, N/P 0.05 to 40, 30 min room temperature, triplicates, sigmoidal model, value is an N/P ratio
Experimental: As previously reported, the binding affinity of selected peptides to siRNA was investigated using the SYBR green exclusion assay. The MLPs and scrambled siRNA were mixed in normal saline (in triplicates) with different N/P ratios ranging from 0.05 to 40. The mixture was incubated at room temperature for 30 min to ensure complete complexation of peptides and siRNA. After the incubation time, the complexes were transferred to a black 96-well plate. SYBR green dye solution for this assay was made by diluting 1 part of SYBR green dye with 10,000 parts of purified water. Then, 200 µL of the freshly made SYBR green dye dilution was added to each siRNA complex in the black 96-well plate. The plate was covered with aluminum foil before reading in a micro-plate reader that detected the fluorescent signal (485 nm excitation and 527 nm emission). […] The percentage of the siRNA complexed with the peptide was determined using the following equation: % siRNA bond to peptide=100−Fluorescence signal for complexed siRNA /Fluorescence signal for free siRNA×100 % siRNA bound to the peptide was plotted against a range of nitrogen to phosphate (N/P) ratios used in the experiment, and BR50 (the N/P ratio of the complex required to bind 50% of siRNA) was determined using a sigmoidal model. […]

MDA-MB-231 cells = test: Confocal microscopy of siRNA internalization; type: cell-based; settings: N/P ratio 40, 24 h, Alexa Fluor 488-labeled siRNA, comparable to Lipofectamine 2000
Experimental: In order to visualize and locate the internalized siRNA, samples for confocal microscopy were prepared using MDA-MB-231 cells, adopting the protocol described previously by our lab. Briefly, sterile 6-well plates were used, and sterile coverslips were placed at the bottom of each well. MDA-MB-231 cells suspended in 2 mL of media were seeded in each well, and the plates were incubated in an incubator at standard growth conditions. After incubation, the cells were exposed to MLPs-fluorescent-labeled siRNA complexes at a N/P ratio of 40 using the same method described above for the FACS assay. The treated cells were again incubated for 24 h to allow for the internalization of siRNA. After overnight incubation, the media was drained from each well, and the cells were rigorously washed with HBSS three times, followed by fixation with 3.7% formaldehyde in the HBSS solution. Following fixation, the cells were treated with Texas Red for 1 h at room temperature to stain the cell membrane. After 1 h of staining with Texas Red, the cells were stained with DAPI overnight at room temperature in a dark environment to stain the nuclei. Following successful nuclei staining, the coverslips containing fixed stained cells were transferred to slides for viewing under a high-definition confocal microscope (Nikon A1 R). […]

scrambled siRNA [2] = test: Gel retardation / gel shifting assay, binding of peptides to siRNA; settings: 1% agarose, ethidium bromide, N/P 0 to 60, 30 min room temperature, bands quantified with Image Lab, value is an N/P ratio
Experimental: In addition to the SYBR green dye exclusion assay described above, the binding affinity of the peptides to siRNA was also determined using the gel retardation/gel shifting assay. Briefly, the MLPs-siRNA complexes were prepared at different N to P ratios ranging from 0 to 60. The N/P ratio of zero represents free siRNA. The tubes containing complexes were incubated at room temperature for 30 min for complete complex formation. After this incubation time, the complexes were mixed with gel-loading dye. Each of the samples was loaded into the wells of 1% agarose gel with (1 μg/mL) ethidium bromide, and […] and 70 Volts were used to run the gel for 20 min. After the run, the gels were visualized under a Bio-Rad imager. The intensity of the bands was quantified by Image Lab software.
To support the data obtained by the SYBR green dye exclusion assay, the binding affinity of the MLPs with siRNA was also determined by the gel retardation assay (Figure 2). For this purpose, the MLPs-siRNA complexes were made in microtubes using purified normal saline at different N to P ratios ranging from 0 to 60. The N to P ratio of 0 represents siRNA only, with no peptide. The solutions in microtubes were allowed to stay at room temperature for 30 min to confer complete complex formation via electrostatic interactions between the MLPs and siRNA. […]

[3] = tested on: STAT3 in MDA-MB-231 cells; test: Western blot of STAT3 protein after STAT3 siRNA delivery, MDA-MB-231; type: cell-based; settings: n = 3
Experimental: The Western blot assay was used to evaluate the expression of STAT-3 protein in MDA-MB-231 cells using the protocol adopted from our previous study. Briefly, the cells were grown in T25 flasks and treated with MLP-siRNA complexes at N/P ratios of 20 and 40 for 48 h. Following treatment, the cells were harvested as pellets in microtubes and were lysed using RIPA lysis buffer supplanted with a protease inhibitor. The lysate was centrifuged for 15 min at 12,000 rpm at 4 °C to allow the separation of all cell proteins. The supernatant containing all cell proteins was separated in pre-cooled microtubes and the protein was quantified using the standard […].
Following the quantification of protein, the samples representing 15 µg of protein were mixed with gel loading dye and loaded in the wells of pre-formed gels and the electrophoresis was carried out at 200 V for 40 min. After the complete run, the gels were transferred to the Western blotting membrane using the Trans-Blot® machine. After successfully transferring gels onto the membrane, the membrane was blocked in 5% Bovine Serum Albumin in TBS-T buffer consisting of 1X tris-buffered saline and 0.1% Tween 20. […] Finally, the membrane was visualized under the Bio-Rad Imager, and the bands were quantified using Image Lab software. […]

AcNH-K(oleyl)-βA-βA-W4-βA-βA-R4-CONH2 [MLP4, oleic acid conjugated peptide, oleyl chain on the Lys side chain]
BC50 ± SD (N/P ratio required for 50% binding of siRNA) (scrambled siRNA [1]): 0.963 ± 0.34 | Internalization of siRNA seen by confocal microscopy (MDA-MB-231 cells): significant internalization of siRNA in the cytosol | BC50 (from quantified gel bands) (scrambled siRNA [2]): 0.9001 | Downregulation of STAT3 protein ([3]; N/P ratio 20, 48 h): > 90% | Downregulation of STAT3 protein ([3]; N/P ratio 40, 48 h, GAPDH housekeeping): > 90%
